Measured values taken from PubChem BioAssay (NCI).
Where “and” joins values, the source holds several entries; their conditions need not be identical. Identical values can stand only once.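 In this assay, cells in 96-well plates receive the compound at five concentrations for 48 hours. Endpoints are linearly interpolated between the surrounding concentrations. Abbreviation: GI50, concentration required for 50% inhibition of growth. TGI: total growth inhibition.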

Key:
Experiment in all cases: NCI-60 cell line screen, 48 h
[1] = tested on: OVCAR-3 ovarian
[2] = tested on: LOX IMVI melanoma
[3] = tested on: MALME-3M melanoma
[4] = tested on: HCT-15 colon
[5] = tested on: MOLT-4 leukemia
[6] = tested on: SN12C renal
[7] = tested on: SK-OV-3 ovarian
[8] = tested on: NCI-H460 lung
[9] = tested on: SR leukemia

Compound | TGI [1] | TGI [2] [µM] | TGI [3] [µM] | TGI [4] | TGI [5] [µM] | TGI [6] | TGI [7] | TGI [8] | TGI [9] [µM] | GI50 [8] [µM] | GI50 [2] [µM] | GI50 [4] [µM] | GI50 [6] [µM] | GI50 [7] [µM] | GI50 [9] [µM] | GI50 [1] [µM] | GI50 [3] [µM] | GI50 [5] [µM]
COC(=O)c1c2c(cc3c1CC1(C3)Cc3cc4c(c(C(=O)OC)c3C1)CCCC4)CCCC2 | > 100 µM | > 100 | > 100 | > 100 µM | > 100 | > 100 µM | > 100 µM |  |  |  |  |  |  |  |  |  |  | 
O=C(c1cc2ccccc2cc1O)N1CCCCC1 |  | > 100 |  | > 100 µM | 42.7 |  | > 100 µM | > 100 µM | 55.9 |  |  |  |  |  |  |  |  | 
COc1cc([N+](=O)[O-])c(OC)cc1-c1nc2sc(Cl)cn2c1/C=N/Nc1ccccn1 |  | > 50 |  | > 50 µM |  | 36.8 µM | 16.5 µM | > 50 µM | 12.1 | 15.8 | > 50 | 28.1 | 8.53 | 9.11 | 0.0877 |  |  | 
CC[C@H]1CN2CCc3cc(OC)c(OC)cc3[C@@H]2C[C@@H]1C[C@H]1NCCc2cc(OC)c(OC)cc21 | 0.187 µM and 0.18 µM | 0.0205 | 0.255 | 0.76 µM and 1.27 µM |  | 0.295 µM and 0.271 µM | 0.223 µM and 0.991 µM | 0.0713 µM and 0.03 µM |  |  |  |  |  |  |  |  |  | 
O=C(CNc1ccccc1Cl)Nn1c(-c2ccccc2)nc2ccccc2c1=O | 48.3 µM | 29.5 |  |  | 57.7 | > 100 µM | > 100 µM | > 100 µM | 97.6 |  |  |  |  |  |  |  |  | 
COc1ccc2cc(-c3ccc(-c4ccc(C(=N)N)s4)s3)ccc2c1 | 6.07 µM | 3.82 | 11.5 | 3.7 µM | 6.7 | 4.65 µM | 33.2 µM |  | 3.38 |  | 1.95 | 1.89 | 2.12 | 17.9 | 0.851 | 2.42 | 3.32 | 2.17
O=C(CCCN1CCC2(CC1)CC(=O)N(N1CCOCC1)C2=O)c1ccccc1 | > 100 µM | > 100 | > 100 | > 100 µM | > 100 | > 100 µM | > 100 µM |  | > 100 |  |  |  |  |  |  |  |  | 
COc1ccc2cc3c4cc5c(cc4cc[n+]3cc2c1OC)OCO5 | 21.4 µM | > 100 | 15.1 | > 100 µM | > 100 | 54.2 µM | > 84.9 µM | > 100 µM |  |  |  |  |  |  |  |  |  | 
C(=N\NC1=NCCCN1)/c1ccc2ccccc2c1 | 32.2 µM | 21 | 33.2 | 29.1 µM | 5.02 | 26.6 µM | 23.6 µM | 17.4 µM |  |  |  |  |  |  |  |  |  | 
COc1cc(NS(C)(=O)=O)ccc1N1Cc2cnc3ccc4[nH]c(C)cc1c4c23 | > 100 µM | > 100 |  | > 100 µM | > 100 |  | > 100 µM | > 100 µM |  |  |  |  |  |  |  |  |  | 
COc1ccc(C(OCC2OC(n3cc(C)c(=O)[nH]c3=O)CC2n2cc(Cn3cc(F)c(=O)[nH]c3=O)nn2)(c2ccccc2)c2ccccc2)cc1 (configuration not stated) | 19.6 µM | > 100 | 31.8 | 23.3 µM | 18.6 | 22.8 µM | 22.9 µM |  | 8.84 |  |  |  |  |  |  |  |  | 
CCOC(=O)NC(=S)NN(C)C1=NCC(C)(C)S1 | > 100 µM | > 100 |  | > 100 µM | > 100 | > 100 µM | > 100 µM | > 100 µM | > 100 |  |  |  |  |  |  |  |  | 
CSc1c(C#N)c(N)n2c1C(=O)N(c1ccccc1)C2=S | > 100 µM | > 100 | > 100 | > 100 µM | > 100 | > 100 µM | > 100 µM | > 100 µM |  |  |  |  |  |  |  |  |  | 
O=C(N=Nc1cc(Cl)ccc1Cl)NNc1cc(Cl)ccc1Cl | 32.7 µM |  | 82.1 | 64.4 µM |  | 52.5 µM | 63 µM | 44.5 µM | > 100 |  |  |  |  |  |  |  |  | 
O=c1oc(-c2ccc(O)c(O)c2)cc2cccc(O)c12 | > 62.4 µM | 37.2 | > 86.5 | > 100 µM | 52 | 46.1 µM | 74.9 µM | > 68.2 µM |  |  | 12.5 |  |  |  |  |  |  | 
Cc1nn(C(=O)Cc2ccccc2)c2c1C(c1ccc(O)cc1)SC(N)=N2 (configuration not stated) |  | > 100 | > 100 | > 100 µM | > 100 | > 100 µM | > 100 µM | > 100 µM | > 100 |  |  |  |  |  |  |  |  | 
O=C(NCCCN(CCCCN(CCCNC(=O)C(F)(F)F)Cc1ccccc1)Cc1ccccc1)C(F)(F)F |  | 21.3 | 28.4 | 24.9 µM | 39.9 | 36.5 µM | 36.1 µM | 22.1 µM |  |  |  |  |  |  |  |  |  | 
O=C(NCCN1CCOCC1)c1ccc2cc(C(=O)N3CC(CCl)c4ccc([N+](=O)[O-])cc43)[nH]c2c1 (configuration not stated) | 33.1 µM | > 100 |  | > 100 µM | 39.1 | 52.7 µM | 40.5 µM | 26.1 µM |  |  |  |  |  |  |  |  |  | 
